Experimental findings from patent US8546414B2, “Ion channel modulators and methods of use” (Vertex Pharmaceuticals Incorporated, priority 2004, dated 2013) are described below.

What all share (format): cell-based
The target of one test is NaV1.8 (Homo sapiens, UniProt Q9Y5Y9). The experiment in a line: VIPR optical membrane potential assay, NaV1.8 (other subtypes in an analogous mode). The settings on record: Table 9, NaV 1.8 receptors. An outline of the steps:
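Cells expressing the NaV subtype stained with coumarin and DiSBAC2(3) membrane-potential dyes, then incubated with test compound for 20-30 minutes. Depolarization evoked by sodium addback and read optically on VIPR; block measured as reduced membrane-potential response, with tetracaine as positive control.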

A further test has as its target T1, CaV2.2 (Homo sapiens, UniProt Q00975).
T1 construct: expressed in transfected cells; host or cells: HEK293
The experiment in a line: VIPR optical membrane potential assay with electrical stimulation, CaV2.2. Conditions: Table 9, CaV 2.2 receptors. In outline: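 HEK293 cells stably expressing CaV2.2 stained with CC2-DMPE/DiSBAC2(3) voltage-sensitive dyes (10 μM final CC2-DMPE, 30 min, RT), then compound added and cells electrically stimulated for 3-5 s. Read-out: background-subtracted 460/580 nm emission ratio; response R=Rf/Ri (post- vs pre-stimulus ratio); antagonism seen as reduced response.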

The next test addresses T2, NaV1.3 (Homo sapiens, UniProt Q9NY46).
T2 construct: expressed in transfected cells; host or cells: HEK293
The experiment in a line: VIPR optical membrane potential assay with electrical stimulation, NaV1.3. Conditions: Table 9, NaV 1.3 receptors. In outline: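 HEK293 cells stably expressing NaV1.3, stained with CC2-DMPE (10 μM final) then DiSBAC2(3) with ABSC1, 30 min each at RT; compounds added with oxonol. Electrical stimulation for 3 s; 460/580 nm background-subtracted emission ratio Rf/Ri, normalised to tetracaine (positive) and untreated (negative) controls.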

T1 sequence (Q00975 whole entry): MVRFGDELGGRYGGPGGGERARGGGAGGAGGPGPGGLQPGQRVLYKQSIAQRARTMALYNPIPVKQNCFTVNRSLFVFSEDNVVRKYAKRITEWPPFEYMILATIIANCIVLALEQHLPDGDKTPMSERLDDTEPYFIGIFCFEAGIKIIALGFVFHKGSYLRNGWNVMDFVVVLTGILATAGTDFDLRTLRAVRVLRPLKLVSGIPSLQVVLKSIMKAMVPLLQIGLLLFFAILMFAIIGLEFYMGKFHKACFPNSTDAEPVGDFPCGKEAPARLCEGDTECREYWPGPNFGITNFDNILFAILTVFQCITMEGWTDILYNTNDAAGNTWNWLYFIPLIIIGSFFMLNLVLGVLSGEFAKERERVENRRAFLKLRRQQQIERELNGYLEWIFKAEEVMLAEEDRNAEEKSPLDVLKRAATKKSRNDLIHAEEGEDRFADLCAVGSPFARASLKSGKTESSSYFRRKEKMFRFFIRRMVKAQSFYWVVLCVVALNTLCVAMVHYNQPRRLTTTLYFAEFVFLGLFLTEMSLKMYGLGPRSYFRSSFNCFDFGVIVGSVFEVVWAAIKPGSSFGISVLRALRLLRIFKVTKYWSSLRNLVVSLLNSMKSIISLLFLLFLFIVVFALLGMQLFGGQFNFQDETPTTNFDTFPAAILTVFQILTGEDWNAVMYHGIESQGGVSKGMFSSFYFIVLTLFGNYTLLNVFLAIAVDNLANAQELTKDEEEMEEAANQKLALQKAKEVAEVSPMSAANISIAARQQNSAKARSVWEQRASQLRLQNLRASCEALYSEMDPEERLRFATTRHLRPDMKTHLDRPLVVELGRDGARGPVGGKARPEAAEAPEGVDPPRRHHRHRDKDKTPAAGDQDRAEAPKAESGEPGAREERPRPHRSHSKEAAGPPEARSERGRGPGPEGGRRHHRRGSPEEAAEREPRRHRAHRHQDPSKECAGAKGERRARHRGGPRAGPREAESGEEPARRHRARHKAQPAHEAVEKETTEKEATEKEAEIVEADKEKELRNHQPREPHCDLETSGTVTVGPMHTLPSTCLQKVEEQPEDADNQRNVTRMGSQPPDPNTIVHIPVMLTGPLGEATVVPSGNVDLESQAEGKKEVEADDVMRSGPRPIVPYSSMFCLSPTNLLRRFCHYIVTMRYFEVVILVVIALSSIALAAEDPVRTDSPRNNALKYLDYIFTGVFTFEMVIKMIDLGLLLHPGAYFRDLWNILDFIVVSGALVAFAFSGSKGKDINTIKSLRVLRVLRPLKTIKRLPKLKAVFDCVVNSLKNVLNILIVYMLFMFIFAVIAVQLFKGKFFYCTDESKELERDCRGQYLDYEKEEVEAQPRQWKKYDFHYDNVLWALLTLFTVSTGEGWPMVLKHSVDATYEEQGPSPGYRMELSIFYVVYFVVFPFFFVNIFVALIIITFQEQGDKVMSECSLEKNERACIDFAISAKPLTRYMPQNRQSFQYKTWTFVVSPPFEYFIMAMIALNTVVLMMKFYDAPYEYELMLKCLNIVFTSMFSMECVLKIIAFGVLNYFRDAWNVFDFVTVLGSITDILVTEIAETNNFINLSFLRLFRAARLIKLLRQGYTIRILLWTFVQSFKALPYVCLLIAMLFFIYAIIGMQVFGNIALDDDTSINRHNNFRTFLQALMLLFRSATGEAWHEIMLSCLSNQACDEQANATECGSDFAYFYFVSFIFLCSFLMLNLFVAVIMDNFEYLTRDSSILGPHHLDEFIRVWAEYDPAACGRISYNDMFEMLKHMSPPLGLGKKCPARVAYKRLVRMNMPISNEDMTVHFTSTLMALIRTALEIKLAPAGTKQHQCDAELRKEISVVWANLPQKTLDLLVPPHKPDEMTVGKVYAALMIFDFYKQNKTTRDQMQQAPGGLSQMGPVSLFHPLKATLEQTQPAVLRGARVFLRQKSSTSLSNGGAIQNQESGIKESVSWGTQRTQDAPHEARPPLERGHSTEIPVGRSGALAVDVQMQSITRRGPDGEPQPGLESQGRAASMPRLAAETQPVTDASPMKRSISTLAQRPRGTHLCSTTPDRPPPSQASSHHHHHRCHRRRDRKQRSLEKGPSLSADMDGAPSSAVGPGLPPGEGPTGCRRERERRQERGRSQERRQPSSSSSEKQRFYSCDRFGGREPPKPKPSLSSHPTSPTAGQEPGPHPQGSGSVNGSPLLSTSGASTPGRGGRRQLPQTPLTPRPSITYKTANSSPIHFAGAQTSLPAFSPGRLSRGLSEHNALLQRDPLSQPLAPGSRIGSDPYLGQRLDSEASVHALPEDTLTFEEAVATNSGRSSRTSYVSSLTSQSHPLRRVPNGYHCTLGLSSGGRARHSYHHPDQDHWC
T1 sequence (P54284 whole entry partner): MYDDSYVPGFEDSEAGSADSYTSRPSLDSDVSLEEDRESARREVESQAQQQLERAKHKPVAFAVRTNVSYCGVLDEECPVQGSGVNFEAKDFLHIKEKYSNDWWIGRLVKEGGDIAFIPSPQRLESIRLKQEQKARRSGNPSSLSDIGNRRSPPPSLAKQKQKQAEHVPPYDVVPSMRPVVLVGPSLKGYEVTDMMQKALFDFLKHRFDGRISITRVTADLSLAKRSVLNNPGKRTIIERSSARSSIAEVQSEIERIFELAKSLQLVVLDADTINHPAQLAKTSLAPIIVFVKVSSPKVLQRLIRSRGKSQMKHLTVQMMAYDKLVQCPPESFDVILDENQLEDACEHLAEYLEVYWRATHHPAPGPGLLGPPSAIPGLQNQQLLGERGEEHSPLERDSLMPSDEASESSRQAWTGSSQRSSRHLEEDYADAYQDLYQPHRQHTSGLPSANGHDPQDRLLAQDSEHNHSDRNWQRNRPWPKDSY
T1 sequence (P54289 25-956 partner limits assumed): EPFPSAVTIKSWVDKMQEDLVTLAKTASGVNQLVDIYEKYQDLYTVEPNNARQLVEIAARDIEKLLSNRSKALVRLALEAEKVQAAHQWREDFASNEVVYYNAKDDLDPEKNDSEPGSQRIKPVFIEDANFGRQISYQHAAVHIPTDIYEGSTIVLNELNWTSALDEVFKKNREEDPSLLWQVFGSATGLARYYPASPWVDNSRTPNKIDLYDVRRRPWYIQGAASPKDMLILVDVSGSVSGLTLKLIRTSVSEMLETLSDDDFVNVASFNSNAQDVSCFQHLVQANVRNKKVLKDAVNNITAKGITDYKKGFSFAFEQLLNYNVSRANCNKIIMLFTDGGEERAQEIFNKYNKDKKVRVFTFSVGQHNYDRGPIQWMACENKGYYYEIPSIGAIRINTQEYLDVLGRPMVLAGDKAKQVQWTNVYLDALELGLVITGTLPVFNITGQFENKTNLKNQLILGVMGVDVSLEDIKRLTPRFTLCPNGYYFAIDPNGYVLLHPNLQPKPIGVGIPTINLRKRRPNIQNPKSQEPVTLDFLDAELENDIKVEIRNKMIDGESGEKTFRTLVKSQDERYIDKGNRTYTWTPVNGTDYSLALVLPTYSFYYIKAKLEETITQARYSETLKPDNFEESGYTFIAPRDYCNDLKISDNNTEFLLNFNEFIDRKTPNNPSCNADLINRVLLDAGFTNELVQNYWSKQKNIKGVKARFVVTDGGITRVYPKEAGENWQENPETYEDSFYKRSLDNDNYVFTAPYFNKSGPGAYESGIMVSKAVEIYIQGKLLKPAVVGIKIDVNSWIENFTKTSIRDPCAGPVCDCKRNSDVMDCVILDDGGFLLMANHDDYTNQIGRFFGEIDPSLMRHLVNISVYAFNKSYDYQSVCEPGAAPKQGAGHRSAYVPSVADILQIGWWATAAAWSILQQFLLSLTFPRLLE
T1 sequence (P54289 957-1103 partner limits assumed): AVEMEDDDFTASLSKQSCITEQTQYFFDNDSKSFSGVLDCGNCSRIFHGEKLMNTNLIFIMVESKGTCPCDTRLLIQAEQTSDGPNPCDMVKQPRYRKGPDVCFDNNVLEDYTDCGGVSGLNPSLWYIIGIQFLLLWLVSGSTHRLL

As a reminder, the IC50 is the midpoint of a concentration-inhibition curve. A high value points to weaker potency. Turning to `O=C(NCCOc1ccccc1)c1cnc(N2CCOCC2)nc1-c1ccc(Oc2ccccc2)cc1` [compound 121], the IC50 at NaV1.8 is greater than 10 µM; on CaV2.2, 2 to 10 µM; against NaV1.3, 2 to 10 µM.
Turning to `CC(C)N(Cc1ccc(C(C)(C)C)cc1)C(=O)c1cnc(N2CCCCC2)nc1-c1ccccc1F` [compound 122], the IC50 on NaV1.8 is greater than 10 µM; against CaV2.2 it was 2 to 10 µM; on NaV1.3, greater than 10 µM.
With `CC(C)N(Cc1ccccc1)C(=O)c1cnc(N2CCOCC2)nc1-c1ccc(Oc2ccccc2)cc1` [compound 123], the IC50 at NaV1.8 is greater than 10 µM; at CaV2.2, 2 to 10 µM; against NaV1.3, greater than 10 µM.
Turning to `O=C(c1cnc(N2CCOCC2)nc1-c1ccccc1F)N(Cc1ccc(C(F)(F)F)cc1)C1CC1` [compound 124], the IC50 at NaV1.8 was greater than 10 µM; at CaV2.2 it was 2 to 10 µM; at NaV1.3 it was 2 to 10 µM.
For `CC(C)N(C(=O)c1cnc(N2CCCCC2)nc1-c1ccccc1F)c1cccc(C#N)c1` [compound 125], the IC50 against NaV1.8 is greater than 10 µM; against CaV2.2, 2 to 10 µM; against NaV1.3 it was greater than 10 µM.
On to `CN1CCN(c2ncc(C(=O)N(Cc3ccc(C(F)(F)F)cc3)C3CC3)c(-c3ccccc3F)n2)CC1` [compound 126], for which the IC50 against NaV1.8 is greater than 10 µM; at CaV2.2 it was 2 to 10 µM; on NaV1.3, greater than 10 µM.
As to `COc1cccc(N(C(=O)c2cnc(N3CCCCC3)nc2-c2ccccc2F)C2CCCCC2)c1` [compound 127], the 50% inhibitory concentration (IC50) on NaV1.8 is greater than 10 µM; at CaV2.2, 2 to 10 µM; at NaV1.3, 2 to 10 µM.
As to `O=C(c1cnc(N2CCOCC2)nc1-c1ccccc1F)N(Cc1ccc(F)cc1)C1CC1` [compound 128], the IC50 against NaV1.8 was greater than 10 µM; against CaV2.2, 2 to 10 µM; on NaV1.3, 2 to 10 µM.
On to `CN1CCN(c2ncc(C(=O)N(Cc3ccccc3)C3CC3)c(-c3ccccc3F)n2)CC1` [compound 129], for which the IC50 against NaV1.8, on CaV2.2 and on NaV1.3 was greater than 10 µM throughout.
Regarding `CC(C)N(Cc1ccccc1)C(=O)c1cnc(N2Cc3ccccc3C2)nc1-c1ccccc1F` [compound 130], the IC50 was greater than 10 µM at NaV1.8, 2 to 10 µM on CaV2.2 and 2 to 10 µM on NaV1.3.
For `COc1cccc(CN(C(=O)c2cnc(N3CCSCC3)nc2-c2ccccc2F)C(C)C)c1` [compound 131], the IC50 against NaV1.8 was 2 to 10 µM; at CaV2.2, less than 2 µM; on NaV1.3, 2 to 10 µM.
As to `CC(C)N(Cc1ccccc1)C(=O)c1cnc(Nc2cccc(O)c2)nc1-c1ccccc1F` [compound 132], the IC50 on NaV1.8, against CaV2.2 and on NaV1.3 was greater than 10 µM in each case.
For the compound `COc1cccc(N(C(=O)c2cnc(N3CCCCC3)nc2-c2ccccc2F)C(C)C)c1` [compound 133], the IC50 is greater than 10 µM against NaV1.8, 2 to 10 µM on CaV2.2 and 2 to 10 µM at NaV1.3.
Consider `COc1cccc(CN(C(=O)c2cnc(N3Cc4ccccc4C3)nc2-c2ccccc2F)C(C)C)c1` [compound 134], for which the IC50 at NaV1.8 is greater than 10 µM; on CaV2.2, less than 2 µM; on NaV1.3, 2 to 10 µM.
Taken in the same sequence, the figures for `CC(C)N(Cc1ccccc1)C(=O)c1cnc(NCc2cccc3ccccc23)nc1-c1ccccc1F` [compound 135] were greater than 10 µM, 2 to 10 µM and greater than 10 µM.
As to `O=C(c1cnc(N2CCCCC2)nc1-c1ccccc1F)N(Cc1ccccc1)C1CCCC1` [compound 136], the half-inhibitory concentration (IC50) on NaV1.8 is greater than 10 µM; at CaV2.2 it was 2 to 10 µM; against NaV1.3 it was 2 to 10 µM.
In the case of `CC(C)N(Cc1ccc(N2CCCC2)cc1)C(=O)c1cnc(N2CCC3CCCCC3C2)nc1-c1ccccc1F` (stereo not drawn) [compound 137], the values for the IC50 against NaV1.8, against CaV2.2 and against NaV1.3 were greater than 10 µM, less than 2 µM and greater than 10 µM, respectively.
Regarding `O=C(c1cnc(N2CCOCC2)nc1-c1ccccc1F)N(Cc1cccnc1)C1CC1` [compound 138], the IC50 on NaV1.8, at CaV2.2 and against NaV1.3 was greater than 10 µM each time.
On to `CC(C)N(Cc1ccccc1)C(=O)c1cnc(N2CCOCC2)nc1-c1cc(F)cc(F)c1` [compound 139], for which the IC50 against NaV1.8, against CaV2.2 and at NaV1.3 was 2 to 10 µM in each case.
As to `CC(C)N(C(=O)c1cnc(N2CCCCC2)nc1-c1ccccc1F)c1cccc([N+](=O)[O-])c1` [compound 140], the values for the IC50 against NaV1.8, against CaV2.2 and on NaV1.3 were greater than 10 µM, 2 to 10 µM and 2 to 10 µM, respectively.
Turning to `CC(C)N(C(=O)c1cnc(N2CCC3CCCCC3C2)nc1-c1ccccc1F)C1CCSC1` (stereo not drawn) [compound 141], the IC50 against NaV1.8 was greater than 10 µM; on CaV2.2, 2 to 10 µM; against NaV1.3, greater than 10 µM.
Regarding `COc1ccc(CN(C(=O)c2cnc(N3CCOCC3)nc2-c2ccccc2F)C2CC2)cc1` [compound 142], the IC50 at NaV1.8, against CaV2.2 and against NaV1.3 was less than 2 µM each time.
As to `Cc1nc(N2CCOCC2)nc(-c2ccccc2F)c1C(=O)N(Cc1ccccc1)C1CCCC1` [compound 143], the IC50 on NaV1.8, at CaV2.2 and against NaV1.3 was 2 to 10 µM each time.
Turning to `COc1cc2c(cc1OC)CN(C(=O)c1cnc(N3CCOCC3)nc1-c1ccccc1F)CC2` [compound 144], the IC50 on NaV1.8, on CaV2.2 and against NaV1.3 was greater than 10 µM each time.
As for `Cc1nc(N2CCOCC2)nc(-c2ccccc2F)c1C(=O)N(Cc1ccccc1)C1CC1` [compound 145], the values for the IC50 at NaV1.8, on CaV2.2 and on NaV1.3 were greater than 10 µM, 2 to 10 µM and 2 to 10 µM, respectively.
As for `CC(C)N(Cc1ccc2c(c1)OCO2)C(=O)c1cnc(N2CCCCC2)nc1-c1ccccc1Cl` [compound 146], the IC50 against NaV1.8, against CaV2.2 and against NaV1.3 was 2 to 10 µM each time.
Consider `CN1CCN(c2ncc(C(=O)N(Cc3ccccc3)C3CCCCC3)c(-c3ccccc3F)n2)CC1` [compound 147], for which the IC50 against NaV1.8 was greater than 10 µM; against CaV2.2 it was 2 to 10 µM; against NaV1.3, greater than 10 µM.
Take `CN1CCN(c2ncc(C(=O)N(Cc3ccccc3)C3CCCC3)c(-c3ccccc3F)n2)CC1` [compound 148]: the IC50 is greater than 10 µM against NaV1.8, 2 to 10 µM against CaV2.2 and greater than 10 µM against NaV1.3.
Consider `CC(C)N(C(=O)c1cnc(N2CCCCC2)nc1-c1ccccc1F)C1CCSC1` (stereo not drawn) [compound 149], for which the IC50 against NaV1.8, at CaV2.2 and on NaV1.3 was greater than 10 µM throughout.
On to `CC1Cc2ccccc2N1C(=O)c1cnc(N2CCOCC2)nc1-c1ccccc1F` (stereo not drawn) [compound 150], for which the IC50 against NaV1.8, on CaV2.2 and against NaV1.3 was greater than 10 µM each time.
Consider `CC(C)N(C(=O)c1cnc(N2CCC3CCCCC3C2)nc1-c1ccccc1F)c1ccc2c(c1)OCCO2` (stereo not drawn) [compound 151], for which the IC50 against NaV1.8 is greater than 10 µM; against CaV2.2, 2 to 10 µM; against NaV1.3, 2 to 10 µM.
With `CC(C)N(C(=O)c1cnc(N2CCCCC2)nc1-c1ccccc1F)c1cccc(N(C)C)c1` [compound 152], the IC50 on NaV1.8 was greater than 10 µM; on CaV2.2 it was 2 to 10 µM; at NaV1.3, 2 to 10 µM.
Take `CC(C)N(Cc1ccccc1)C(=O)c1cnc(NCC(=O)O)nc1-c1ccccc1F` [compound 153]: the half-maximal inhibitory concentration (IC50) against NaV1.8, on CaV2.2 and on NaV1.3 was greater than 10 µM throughout.
